Experimental findings from patent US4797362A (priority 1985, dated 1989) are described below.

Test [1] deals with alkaline protease Ya (enzyme Ya) produced by Bacillus sp. Y (FERM BP-1029). Format: biochemical. The following applies: for Relative Activity Enzyme Ya: pH 7.2, 30 min.
Test [2] has as its system alkaline protease Yb (enzyme Yb) produced by Bacillus sp. Y (FERM BP-1029). Format: biochemical. The following applies: for Relative Activity Enzyme Yb: pH 7.2, 30 min.

Where two headings read alike, the source gives them in different places. Numbered stars: 1 amine (or outer) side, 2 acyl side, 3 side chain; on linkers, the order of the positions; unused ones are H or OH. Peptide text beside a SMILES is read from it. CO = O=C([*:1])[*:2]

`CC(C)[C@H](NC(=O)[C@H](CCCNC(=N)N)NC(=O)N[C@@H](Cc1ccccc1)C(=O)O)C(=O)N[C@H](C=O)CCCNC(=N)N` [Antipain] ({Phe-CO}-Arg-Val-Arg-aldehyde): in test [1], the “Inhibition of enzyme Ya (in words)” value was “not inhibited” and the “Relative Activity Enzyme Ya” value turned out to be 124. Also, in test [2], the “Inhibition of enzyme Yb (in words)” value is on record as “not inhibited” and the “Relative Activity Enzyme Yb” value was found to be 87.
On to `O=C(O)CN(CCN(CC(=O)O)CC(=O)O)CC(=O)O` [EDTA], for which the “Inhibition of enzyme Ya (in words)” value in test [1] is recorded as “not inhibited”. Besides, the “Relative Activity Enzyme Ya” value in test [1] (5000 µM) is 97. Besides, the “Inhibition of enzyme Yb (in words)” value in test [2] is reported as “not inhibited”. Moreover, in test [2] (5000 µM), the “Relative Activity Enzyme Yb” value turned out to be 100.
`O=C(O)c1cc[c]([Hg][Cl])cc1` [PCMB]: the “Inhibition of enzyme Ya (in words)” value in test [1] is recorded as “not inhibited”. Further, the “Relative Activity Enzyme Ya” value in test [1] (1000 µM) is 122. Besides, in test [2], the “Inhibition of enzyme Yb (in words)” value is recorded as “not inhibited”. For the same compound, the “Relative Activity Enzyme Yb” value in test [2] (1000 µM) was determined as 92.
As to `O=S(=O)(F)Cc1ccccc1` [PMSF], the “Inhibition of enzyme Ya (in words)” value in test [1] is given as “inhibited”. The “Relative Activity Enzyme Ya” value in test [1] (1000 µM) was 0. Besides, the “Inhibition of enzyme Yb (in words)” value in test [2] was “inhibited”. The “Relative Activity Enzyme Yb” value in test [2] (1000 µM) worked out at 1.
As for `NC(N)=O` [Urea], the “Relative Activity Enzyme Ya” value in test [1] came to 130. Also, in test [2], the “Relative Activity Enzyme Yb” value is 82.
With Chymostatin, in test [1], the “Inhibition of enzyme Ya (in words)” value was “not inhibited” and the “Relative Activity Enzyme Ya” value is recorded as 77. Besides, in test [2], the “Inhibition of enzyme Yb (in words)” value was “not inhibited” and the “Relative Activity Enzyme Yb” value was 75.
